Two compounds from publication PMC12314892, “Macrocyclic Phage Display for Identification of Selective Protease Substrates” (Journal of the American Chemical Society, 2025) can be followed below.

Assay [1] has as its target T1, Recombinant Human FAPα (Homo sapiens, UniProt Q12884).
T1 construct: purchased R&D Systems 3715-SE-010
T1 sequence (Q12884 1-760): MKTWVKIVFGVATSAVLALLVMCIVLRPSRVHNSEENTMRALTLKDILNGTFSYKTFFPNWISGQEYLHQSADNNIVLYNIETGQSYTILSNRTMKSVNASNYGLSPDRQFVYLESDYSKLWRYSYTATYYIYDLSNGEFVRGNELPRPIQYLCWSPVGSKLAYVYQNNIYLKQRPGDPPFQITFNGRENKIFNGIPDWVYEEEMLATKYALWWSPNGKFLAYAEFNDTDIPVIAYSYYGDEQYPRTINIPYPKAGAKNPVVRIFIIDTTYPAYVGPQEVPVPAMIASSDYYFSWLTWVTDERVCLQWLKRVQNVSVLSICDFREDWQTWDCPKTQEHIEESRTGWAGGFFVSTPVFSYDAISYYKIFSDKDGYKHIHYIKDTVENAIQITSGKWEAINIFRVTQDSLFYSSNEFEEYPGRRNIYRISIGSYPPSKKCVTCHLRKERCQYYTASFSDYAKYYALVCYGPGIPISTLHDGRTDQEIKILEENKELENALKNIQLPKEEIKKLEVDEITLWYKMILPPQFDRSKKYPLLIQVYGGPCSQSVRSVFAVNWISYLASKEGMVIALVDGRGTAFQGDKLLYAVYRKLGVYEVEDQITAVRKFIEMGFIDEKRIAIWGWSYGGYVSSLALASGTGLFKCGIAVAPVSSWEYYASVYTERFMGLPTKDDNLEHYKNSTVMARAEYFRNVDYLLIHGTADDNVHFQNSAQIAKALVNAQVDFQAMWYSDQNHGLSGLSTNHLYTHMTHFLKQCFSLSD
Description: Fluorogenic substrate cleavage assay. It counts as biochemical. As to the method: (§1) Fluorogenic Substrate Cleavage Assay
(§2) The following proteases were used for the activity assay: Recombinant Human FAPα Protein, CF (R&D Systems, Catalog No.: 3715-SE-010), Recombinant Human Prolyl Oligopeptidase/PREP Protein, CF (R&D Systems, Catalog No.: 4308-SE-010). Recombinant Human DPP9 Protein, CF (R&D Systems, Catalog No.: 5419-SE-010). Recombinant Human DPP4 Protein (Sino Biological, Catalog No.: 10688-HNCH-10). The buffers used for the activity assay were: FAPα - 50 mM Tris, 1 M NaCl, 1 mg/mL BSA, pH 7.5, PREP- 25 mM Tris, 250 mM NaCl, 2.5 mM DTT, pH 7.5 (DTT was freshly added immediately before use), DPP9- 25 mM Tris, pH 7.5, DPP4- 25 mM Tris, pH
(§3) 7.5. The following commercial substrates were used: zGP-AMC (Bachem,Catalog No.: […]
(§4) conducted in Greiner Bio-One black microplates of 384 wells and polystyrene F-bottom (Catalog No.: 784076). All compounds were dissolved in DMSO at a concentration of 10 mM and then diluted into the respective buffer to the desired final concentration. The protease was added to the specified concentration before the fluorescence measurements. For fluorescence measurements, 2 μL of substrate was further diluted into 6 μL of buffer, followed by addition of 2 μL of enzyme in buffer. For no enzyme controls 2 μL of substrate was diluted into 8 μL of buffer.
(§5) The fluorescence was measured using a Cytation 3 plate reader (BioTek). All experiments have at least three technical replicates. All assays were conducted at 37°C for a minimum of 90 min, unless otherwise noted. Fluorescence measurements were performed at ex/em, 355/460 nm for ACC substrates. The substrates velocity was quantified by calculating the slope of the linear phase of the reaction as relative fluorescence units (RFU) per min. […]

The target in assay [2] is T2, Recombinant Human DPP9 (Homo sapiens, UniProt Q86TI2).
T2 construct: purchased R&D Systems 5419-SE-010
T2 sequence (Q86TI2 whole entry): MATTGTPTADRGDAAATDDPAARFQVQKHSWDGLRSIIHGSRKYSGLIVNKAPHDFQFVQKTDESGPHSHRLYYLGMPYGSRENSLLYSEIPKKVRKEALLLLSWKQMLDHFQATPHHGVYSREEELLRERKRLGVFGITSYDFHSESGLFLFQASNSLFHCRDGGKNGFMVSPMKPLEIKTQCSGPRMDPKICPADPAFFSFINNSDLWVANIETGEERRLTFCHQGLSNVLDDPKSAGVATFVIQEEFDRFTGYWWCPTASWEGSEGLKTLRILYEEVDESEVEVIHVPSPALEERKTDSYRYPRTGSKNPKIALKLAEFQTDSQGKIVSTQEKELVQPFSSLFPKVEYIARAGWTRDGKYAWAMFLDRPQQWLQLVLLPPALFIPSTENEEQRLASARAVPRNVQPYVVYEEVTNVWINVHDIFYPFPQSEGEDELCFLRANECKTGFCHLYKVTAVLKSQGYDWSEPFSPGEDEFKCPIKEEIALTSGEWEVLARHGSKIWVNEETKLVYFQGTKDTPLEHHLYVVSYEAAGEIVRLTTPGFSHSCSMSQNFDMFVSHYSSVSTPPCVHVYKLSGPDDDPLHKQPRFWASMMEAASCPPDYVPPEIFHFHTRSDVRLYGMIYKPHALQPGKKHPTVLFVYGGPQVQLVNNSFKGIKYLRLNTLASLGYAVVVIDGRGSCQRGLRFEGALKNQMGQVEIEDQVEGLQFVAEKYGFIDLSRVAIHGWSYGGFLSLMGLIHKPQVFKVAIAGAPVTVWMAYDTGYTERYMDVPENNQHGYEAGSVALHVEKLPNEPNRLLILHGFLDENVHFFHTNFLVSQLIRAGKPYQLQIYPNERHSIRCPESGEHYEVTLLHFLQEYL
Description: Fluorogenic substrate cleavage assay. Format: biochemical. The following applies: Supplementary figure 11; 200 μM, 1 hour at 37°C; 2 nM DPP4 vs 6 nM DPP9; RFU/min. The method, then:
as §1, §2, §3, §4, §5

SMILES strings stand for the structures. *1 amine or outer side, *2 acyl side, *3 side chain or, on linkers, in order; H or OH if unused. Where a SMILES comes first, the peptide text is derived from it. Bridges are numbered along the chain shown (N, C = ends). The star is where a group is joined. X1 = NC(=O)Cc1cc(=O)oc2cc(NC(=O)[C@@H]3CCCN3C(=O)Cn3nc(C[*:1])cc3C[*:2])ccc12; AMC = Cc1cc(=O)oc2cc(N*)ccc12

For `Cc1cc(=O)oc2cc(NC(=O)[C@@H]3CCCN3C(=O)CN)ccc12` [GP-AMC] (H-Gly-Pro-{AMC}), the “selectivity for DPP4 (vs FAPα)” value in assay [1] (Supplementary figure 11, 200 μM, 1 hour at 37°C, 2 nM DPP4 vs 10 nM FAPα, RFU/min) came to 16 fold. The “selectivity for DPP4 (vs DPP9)” value in assay [2] worked out at 11 fold.
As for `CC(C)[C@@H]1NC(=O)[C@@H](N)CSCc2cc(n(CC(=O)N3CCC[C@H]3C(=O)Nc3ccc4c(CC(N)=O)cc(=O)oc4c3)n2)CSC[C@@H](C(=O)NCC(N)=O)NC(=O)[C@H](CC(=O)O)NC(=O)[C@H](C)NC(=O)[C@H](CC(N)=O)NC(=O)[C@H](CCC(N)=O)NC(=O)[C@H](Cc2ccccc2)NC(=O)[C@H](CO)NC1=O` [FAP-33.2A6] (H-CVSFQNADCG-NH2; linker 1-9 via X1; N-terminus assumed), the “FAPα activity (substrate cleavage, RFU/min), in words” value in assay [1] (substrate 200 μM, 10 nM FAPα, 37 °C, triplicates) is “better substrate than the parent FAP-33.2”.
